Data from US20240197666A1, “DITERPENOID COMPOUNDS THAT ACT ON PROTEIN KINASE C (PKC)” (K-Gen Therapeutics, Inc., priority 2021, published 2024).
Read-outs that look alike come from different tables or passages of the source.

Columns and labels:
[1] = test system: Hela cells; assay: In vitro scratch wound healing assay; type: cell-based; settings: 24h
Experimental: Scratch wound healing assay creates a gap by scratching a confluent monolayer of cells to mimic a wound and then measures the ability of cells to fill up the gap (wound) in the presence of DMSO or test compounds. 1.2-1.5×10^5 Hela cells in 1 mL media RPMI-1640 with 10% FBS were seeded in 24-well plates. Cells were starved for overnight in the same media without FBS when cells became confluent. After starvation, a scratch was made in the middle of the well and the plates were washed three times to remove detached cells. DMSO or different concentrations of compounds were diluted and added to the cells. The assay plates were put into Incucyte S3 and scanned with 4× scanner setting regularly. The imaging results were exported and the wound area was analyzed by ImageJ. Wound healing or closure was calculated by the following formula: wound healing %=(wound area at 0h−wound area at 24h)/wound area 0h*100%. Relative wound healing was calculated by dividing wound healing % of compound treatment to that of DMSO*100%.

[2] = test system: NFκB-driven transcription in HeLa-NFκB luciferase reporter cell line; assay: NFκB luciferase reporter assay; settings: Homo sapiens, HeLa, 16 h, read-out: NFκB-luc HeLa cells EC50 (μM)
Experimental: A HeLa-NFκB luciferase reporter cell line (Wuxi Biology) was used to assess a group of PKC activator compounds for their ability to activate NFκB-driven transcription. […] One set of cells was assayed for luciferase activity (Promega, Cat #E1500) and the other set was assayed to determine the number of viable cells (for cell number normalization) using CellTiter-Glo (CTG) kit (Promega, Cat #G7570) according to manufacture's procedures. Normalized data (luciferase value/CTG value) were analyzed using GraphPad Prism5 to calculate EC50 for each compound (see Table 8).
To assess if activation of PKC is required for these compounds to activate NFκB, several PKC inhibitors including broad-spectrum and conventional PKC inhibitors were tested. In the assay described above, PKC inhibitors were added at the same time as the PKC activator compounds.

[3] = test system: Panc2.13 (Pancreatic); assay: Proliferation of Panc2.13; type: cell-based; settings: for IC50: read-out: IC50 Panc2.13 (Pancreatic)
In short: (§1)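 Panc2.13 was seeded at 3000 cells/well, KP-4 at 800-1000, HL-60 at 5000 and Namalwa at 5000-10000, then given 3-fold serial dilutions of compound with final DMSO ≤0.25% for 96 h at 37° C. CellTiter Glo luminescence was read and inhibition calculated against DMSO-only wells. IC50 was normalised to comparator K101.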

[4] = test system: KP-4 (Pancreatic); assay: Proliferation of KP-4; type: cell-based; settings: read-out: IC50 KP-4 (Pancreatic)
In short: as §1

| Compound | Relative wound healing to control (%) ([1]; 30 nM) | Relative wound healing to control (%) ([1]; 100 nM) | Relative wound healing to control (%) ([1]; 300 nM) | EC50 [2] [µM] | ratio (IC50 of K101)/(IC50 of compound) Panc2.13 [3] | IC50 [3] [nM] | IC50 [4] [nM] | IC50 ([4]; 96 h) [nM] |
| --- | --- | --- | --- | --- | --- | --- | --- | --- |
| CC1=C[C@H]2[C@@]3(O)[C@H](C)C[C@]4(OC(=O)[C@@H](N)CC5CCCCC5)[C@H]([C@@H]3C=C(CO)C[C@]2(O)C1=O)C4(C)C | 123 | 351 | 287 | 0.03 to 0.06 | 7.1 | 100 to 200 | 100 to 200 | – |
| CC1=C[C@H]2[C@@]3(O)[C@H](C)C[C@]4(OC(=O)[C@@H](N)C5Cc6ccccc6C5)[C@H]([C@@H]3C=C(CO)C[C@]2(O)C1=O)C4(C)C | 210 | 248 | 238 | 0.06 to 0.1 | 5.82 | 100 to 200 | – | 100 to 600 |
